Values after ≈ are worked out from the molar mass of the structure shown. Like-named read-outs stand apart in the source and are kept apart here.
Legend:
Format in all cases: cell-based
Acinetobacter baumannii = test: MIC, microdilution in 96-well plates
Procedure, shortened: (§1)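 Each of the 20 strains is tested in LB at a 1:10000 dilution of a growing subculture. Compound is titrated 2-fold in three replicates; a DMSO column serves as vehicle control. After shaking incubation at 37° C. for 16-18 hours, MIC is taken as the lowest clear concentration.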

Enterobacter aerogenes = test: MIC, microdilution in 96-well plates; settings: Klebsiella aerogenes
Procedure, shortened: as §1

Pseudomonas aeruginosa = test: MIC, microdilution in 96-well plates
Procedure, shortened: as §1

Edwardsiella tarda = test: MIC, microdilution in 96-well plates
Procedure, shortened: as §1

E. coli BW25113 = test: MIC, microdilution in 96-well plates; settings: Escherichia coli, read-out: MIC
Procedure, shortened: as §1

Shigella flexneri = test: MIC, 20-strain panel
Procedure, shortened: as §1

Streptococcus agalactiae = test: MIC, 20-strain panel
Procedure, shortened: as §1

[1] = system: Staphylococcus epidermidis; test: MIC, 20-strain panel
Procedure, shortened: as §1

[2] = system: Staphylococcus aureus subsp. aureus; test: MIC, 20-strain panel; settings: read-out: MIC
Procedure, shortened: as §1

[3] = system: Klebsiella pneumoniae subsp. pneumoniae; test: MIC, 20-strain panel
Procedure, shortened: as §1

E. coli JW5503 (deltolC) = test: MIC, 20-strain panel; settings: Escherichia coli
Procedure, shortened: as §1

[4] = system: Morganella morganii subsp. morganii; test: MIC, 20-strain panel
Procedure, shortened: as §1

[5] = system: Staphylococcus saprophyticus subsp. saprophyticus; test: MIC, 20-strain panel
Procedure, shortened: as §1

[6] = system: Salmonella enterica subsp. enterica typhimurium; test: MIC, 20-strain panel
Procedure, shortened: as §1

Streptococcus pyogenes = test: MIC, 20-strain panel
Procedure, shortened: as §1

E. coli MG1655 = test: MIC, 20-strain panel; settings: Escherichia coli, read-out: MIC
Procedure, shortened: as §1

Enterococcus faecalis = test: MIC, 20-strain panel; settings: Table 7, separate set of experiments
Procedure, shortened: as §1

Bacillus cereus = test: MIC, 20-strain panel; settings: Table 7, separate set of experiments, read-out: MIC
Procedure, shortened: as §1

Bacillus subtilis 168 = test: MIC, 20-strain panel; settings: Table 7, separate set of experiments, read-out: MIC
Procedure, shortened: as §1

Enterococcus faecium = test: MIC, 20-strain panel; settings: Table 7, separate set of experiments, read-out: MIC
Procedure, shortened: as §1

[7] = Table 7, separate set of experiments
[8] = BW25113, E. coli BW25113, Table 7, separate set of experiments
[9] = H: Staphylococcus aureus subsp. aureus
[10] = E. coli JW5503 (deltolC), Table 7, separate set of experiments
[11] = F: Salmonella enterica subsp. enterica Typhimurium
[12] = Salmonella enterica subsp. enterica typhimurium, Table 7, separate set of experiments
[13] = MG1655, E. coli MG1655, Table 7, separate set of experiments
[14] = Table 7, separate set of experiments, read-out: MIC

`Cc1ccc(C#N)cc1S(=O)(=O)N[C@@H]1CCN(Cc2ccc(OC3CC3)cc2)C1` [Compound 113] gave an MIC (Acinetobacter baumannii) of over 16 µg/mL, an MIC (Enterobacter aerogenes) of over 16 µg/mL and an MIC (Pseudomonas aeruginosa) of over 16 µg/mL. It also gave an MIC (Edwardsiella tarda; D: Edwardsiella tarda) of about 8 µg/mL (≈ 19.4 µM), an MIC (Edwardsiella tarda; [7]) of 16 µg/mL (≈ 38.9 µM) and an MIC (E. coli BW25113; BW25113, B: E. coli BW25113) of about 8 µg/mL (≈ 19.4 µM). The MIC (E. coli BW25113; [8]) was 8 µg/mL (≈ 19.4 µM), the MIC (Shigella flexneri; G: Shigella flexneri) was about 8 µg/mL (≈ 19.4 µM) and the MIC (Shigella flexneri; [7]) was 8 µg/mL (≈ 19.4 µM). It also gave an MIC (Streptococcus agalactiae) of over 8 µg/mL, an MIC [1] of over 8 µg/mL and an MIC [2, 9] of over 8 µg/mL. The MIC ([3]; E: Klebsiella pneumoniae subsp. pneumoniae) was over 8 µg/mL, the MIC ([3]; Klebsiella pneumoniae subsp. pneumoniae, Table 7, separate set of experiments) was over 16 µg/mL and the MIC (E. coli JW5503 (deltolC); C: E. coli JW5503 (deltolC)) was 0.25 µg/mL (≈ 0.607 µM). For the same compound, the MIC (E. coli JW5503 (deltolC); [10]) was 0.125 µg/mL (≈ 0.304 µM), the MIC ([4]; Morganella morganii) was over 16 µg/mL and the MIC [5] was over 8 µg/mL. It also gave an MIC [6, 11] of 2 µg/mL (≈ 4.86 µM), an MIC [6, 12] of 4 µg/mL (≈ 9.72 µM) and an MIC (Streptococcus pyogenes) of over 8 µg/mL. It also gave an MIC (E. coli MG1655; MG1655, A: E. coli MG1655) of about 8 µg/mL (≈ 19.4 µM) and an MIC (E. coli MG1655; [13]) of 16 µg/mL (≈ 38.9 µM).
For `Cc1ccc(C#N)cc1S(=O)(=O)N[C@@H]1CCN(Cc2ccc(-c3ccccc3)cc2)C1` [Compound 143], the MIC (Acinetobacter baumannii; [14]) was over 16 µg/mL, the MIC (Enterobacter aerogenes; Enterobacter aerogenes, Table 7, separate set of experiments, read-out: MIC) was over 16 µg/mL and the MIC (Pseudomonas aeruginosa; [14]) was over 16 µg/mL. For the same compound, the MIC (Edwardsiella tarda; D: Edwardsiella tarda, read-out: MIC) was about 8 µg/mL (≈ 18.5 µM), the MIC (Edwardsiella tarda; [14]) was 8 µg/mL (≈ 18.5 µM) and the MIC (E. coli BW25113; BW25113, B: E. coli BW25113) was about 8 µg/mL (≈ 18.5 µM). For the same compound, the MIC (E. coli BW25113; [8]) was 8 µg/mL (≈ 18.5 µM), the MIC (Shigella flexneri; G: Shigella flexneri) was 4 µg/mL (≈ 9.27 µM) and the MIC (Shigella flexneri; [7]) was 4 µg/mL (≈ 9.27 µM). The MIC (Enterococcus faecalis) was over 16 µg/mL, the MIC (Bacillus cereus) was over 16 µg/mL and the MIC (Streptococcus agalactiae; K: Streptococcus agalactiae, read-out: MIC) was over 8 µg/mL. For the same compound, the MIC (Streptococcus agalactiae; [14]) was over 16 µg/mL, the MIC ([1]; J: Staphylococcus epidermidis, read-out: MIC) was about 8 µg/mL (≈ 18.5 µM) and the MIC [1, 14] was over 16 µg/mL. It also gave an MIC [2, 9] of over 8 µg/mL, an MIC ([2]; Staphylococcus aureus subsp. aureus, Table 7, separate set of experiments) of over 16 µg/mL and an MIC (Bacillus subtilis 168) of over 16 µg/mL. It also gave an MIC ([3]; E: Klebsiella pneumoniae subsp. pneumoniae, read-out: MIC) of over 8 µg/mL, an MIC ([3]; Klebsiella pneumoniae subsp. pneumoniae, Table 7, separate set of experiments, read-out: MIC) of over 16 µg/mL and an MIC (Enterococcus faecium) of over 16 µg/mL. For the same compound, the MIC (E. coli JW5503 (deltolC); C: E. coli JW5503 (deltolC)) was under 0.0625 µg/mL, the MIC (E. coli JW5503 (deltolC); [10]) was under 0.0078 µg/mL and the MIC ([4]; Morganella morganii subsp. morganii, Table 7, separate set of experiments, read-out: MIC) was over 16 µg/mL. The MIC ([5]; I: Staphylococcus saprophyticus subsp. saprophyticus, read-out: MIC) was over 8 µg/mL, the MIC ([5]; Staphylococcus saprophyticus subsp. saprophyticus, Table 7, separate set of experiments, read-out: MIC) was over 16 µg/mL and the MIC [6, 11] was 1 µg/mL (≈ 2.32 µM). It also gave an MIC [6, 12] of 2 µg/mL (≈ 4.63 µM), an MIC (Streptococcus pyogenes; L: Streptococcus pyogenes, read-out: MIC) of over 8 µg/mL and an MIC (Streptococcus pyogenes; [14]) of over 16 µg/mL. The MIC (E. coli MG1655; MG1655, A: E. coli MG1655) was 8 µg/mL (≈ 18.5 µM) and the MIC (E. coli MG1655; [13]) was 16 µg/mL (≈ 37.1 µM).

— US10253039B2, “Inhibitors of bacterial DNA gyrase with efficacy against gram-negative bacteria” (priority 2014, dated 2019)
